In paper PMC4301629 (PLoS ONE, 2015):

Key:
Assay type in all cases: cell-based
α1A-AR [1] = target: T1, α1A-AR (Homo sapiens, UniProt P35348); assay: IP accumulation in α1A-AR_CHO stable cells; parameters: expressed in transfected cells; settings: Iso up to 1 mM
T1 sequence (P35348 1-466): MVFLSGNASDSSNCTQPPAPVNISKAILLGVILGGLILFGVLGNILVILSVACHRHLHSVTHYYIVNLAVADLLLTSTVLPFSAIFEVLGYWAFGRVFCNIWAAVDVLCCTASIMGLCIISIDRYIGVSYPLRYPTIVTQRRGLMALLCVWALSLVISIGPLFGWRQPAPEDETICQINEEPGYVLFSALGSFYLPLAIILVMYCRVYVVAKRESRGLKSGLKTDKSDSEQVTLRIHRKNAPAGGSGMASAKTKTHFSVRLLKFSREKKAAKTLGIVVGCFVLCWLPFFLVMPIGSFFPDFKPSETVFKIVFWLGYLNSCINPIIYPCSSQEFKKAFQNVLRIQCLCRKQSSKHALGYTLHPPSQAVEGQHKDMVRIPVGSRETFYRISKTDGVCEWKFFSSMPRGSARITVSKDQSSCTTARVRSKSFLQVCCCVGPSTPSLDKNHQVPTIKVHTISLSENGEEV
Method: After 10–20 minutes, 10 μL of agonist was added followed by incubation for 5 to 30 minutes. Stimulation was stopped by addition of lysis buffer. Second messenger levels were determined using a homogeneous immunoassay method with time-resolved FRET detection (IP-One HTRF, Cisbio International) according to protocols provided by the supplier. Sample fluorescence was measured with a Nanoscan plate reader (IOM, Berlin). Each data point represents the average of quadruplicate determinations and each experiment was performed at least two times independently.
IP1, IP2, and IP3 levels were determined via LC-MS. Plots are representative of three independent experiments with each data point being the average of triplicates.

α1A-AR [2] = target: T1, α1A-AR; assay: Ca2+ transient response (FLIPR, fluo3) in α1A-AR transduced HEK-293/EBNA cells; parameters: expressed in transfected cells; host or cells: HEK-293/EBNA (baculovirus transduction, NaBu induction)
Method: Prior to experiments, cells were transduced with baculovirus strains designed for transient expression of α1A-AR or aldehyde oxidase (negative control). This was performed by incubating cells with virus (MOI 100–150) for 3 to 4 h, followed by exchange into fresh serum free growth medium supplemented with 4 mM sodium butyrate (NaBu). Cells were grown for another 14 to 18 h and then examined for agonist-evoked responses in transient Ca^2+ release, IP accumulation or pERK activation assays. The surface receptor expression density was determined by flow cytometry via immunofluorescence labeling of an N-terminal HA epitope tag on the receptor and radioligand binding in partially purified membranes.
Cells were resuspended in Hank’s balanced salt solution (Invitrogen) supplemented with 2 mM CaCl2, 10 mM HEPES pH 7.4, 2.5 mM probenecid, plus 1g/L each of glucose and bovine serum albumin (BSA), and seeded in poly-D-lysine coated 96-well black plates with transparent bottom (Costar) at a density of 50,000 cells/0.1 mL per well. Cells were then incubated for 1 h at 37°C with an additional 0.1 mL of buffer containing 4 μM fluo3-AM that was diluted from a stock solution containing 1 mM fluo3-AM dye in DMSO with 10% pluronic acid. After dye loading incubation, plates were washed twice with 100 μL of buffer and refilled with 100 μL of assay buffer. In experiments testing the effect of antagonists, 25 μL of buffer from wells of washed cells were replaced with 25 μL of vehicle or 4× antagonist solution. Pre-incubation of ligand with dye-loaded cells proceeded for 5–30 minutes immediately prior to measurements of agonist-evoked responses. Agonist-evoked Ca^2+ mobilization responses of cell populations were monitored at room temperature simultaneously in all wells of the assay plate using the plate-imaging fluorometric reader FLIPR (MDS Analytical Technologies, Sunnyvale, CA). […] The amplitudes of Ca^2+ transient responses are reported as ΔF/F0, or fold-change in Ca^2+ dye fluorescence relative to the baseline signal ΔF/F0 = (F-F0)/F0 +1 (where ΔF is maximal fluorescence intensity observed following agonist application, F0 = baseline fluorescence, or average intensity measured over the 10 s interval prior to agonist application). Image acquisition rates were varied from 1 Hz during the first 100 s of measurements to 0.5 Hz for the remaining time of the recording.
Graphs shown reflect either pooled or representative data (see figure legends). For concentration-response analysis, results from Ca^2+ mobilization experiments were plotted as ΔF/F0 vs. agonist concentration and fit to a sigmoidal concentration-response equation using the GraphPad Prism software package. In cases where biphasic concentration-response curves were observed data were fit to a two-site concentration-response model: F(X)=R0+(Rmax−R0)[Fr1/(1+10^X-logEC50,1)+(1−Fr1)/(1+10^X-logEC50,2)] (1) , where X is the logarithm of the agonist concentration, R0 and Rmax are respectively the response minimum and maximum; Fr1 is the response fraction attributable to receptor characterized by half effective concentration of the first response phase (EC50,1), with the reminder response attributable to the second half effective concentration (EC50,2). For radioligand binding experiments, B max values were calculated from maximum binding using the equation B max = (SB × ([…] + [L])/[L]), where SB is the specific binding expressed as fmol per mg of membrane protein, and [L] is the ligand concentration.

α1A-AR [3] = target: T1, α1A-AR; assay: LC-MS detection of IP1, IP2 and IP3 in α1A-AR transduced HEK-293/EBNA cells; parameters: expressed in transfected cells; host or cells: HEK-293/EBNA (baculovirus transduction, NaBu induction); settings: Iso up to 10 mM
Method: Virally transduced HEK-293/EBNA cells were resuspended in growth medium and seeded in poly-D-lysine coated 96-well black plates at a density of 100,000 cells/0.1 mL per well, Cells were allowed to attach for 2 hours at 37°C in a humidified atmosphere of 95% air and 5% CO2. After that, the medium was replaced with agonist solution in assay buffer (20 mM HEPES, 10 mM glucose, 1.8 mM CaCl2, 0.5 mM MgSO4, in HBSS 1X buffer, 50 mM LiCl) and cells were incubated at 37°C for 30 min. Stimulation was stopped by exchange of assay buffer with lysis buffer (100 μL 0.1N HCl/MeOH), and lysis proceeded for 30 min at 4°C. Cellular levels of inositol phosphates were determined using a Thermo LC-MS detection system following a published protocol. Chromatography was performed employing a BioBasic column AX (50 × 2.1 mm, Thermo). The mobile phase consisted of solvent A: 10 mM ammonium acetate, pH 6 in 30/70 acetonitrile/water, and solvent B: 1 mM ammonium acetate, pH 11 in 30/70 acetonitrile/water. A gradient solvent system was used starting with 0% solvent B, and analytes were eluted by increasing solvent B to 100% over 3 min. Each data point represents the average of triplicate determinations and each experiment was performed at least three times independently.

Structure (SMILES): CC(C)NCC(O)c1ccc(O)c(O)c1 (stereo not shown) [Iso, isoproterenol]
- IP accumulation (α1A-AR [1]): no IP accumulation could be detected
- maximal response amplitude ΔF/F0 in presence of ICI 118,551 (α1A-AR [2]): 1.3
- magnitude ΔF/F0 in presence of RS100329 (α1A-AR [2]; 10 nM RS100329 pretreatment): 1.2
- ΔF/F0, β2-AR-dependent phase (α1A-AR [2]; pertussis toxin 100 ng/mL, 18 h): 1.5
- ΔF/F0, β2-AR-dependent phase (α1A-AR [2]; vehicle (no PTX), Fig. 4B): 1.3
- diminution of low potency phase of response in absence of extracellular Ca2+ (α1A-AR [2]; α1A-AR transduced cells): approximately 50%
- cellular levels of inositol phosphates IP1, IP2 and IP3 (α1A-AR [3]): no significant changes
